Legend:
[1] = target: PIK3CA (Homo sapiens, UniProt P42336); experiment: Adapta kinase assay; conditions: Adapta assay at [ATP]=apparent Km; read-out: Biochemical IC50 PIK3CA
[2] = target: GSK3A (Homo sapiens, UniProt P49840); experiment: Z’-LYTE enzymatic assay; conditions: Z’-LYTE assay at [ATP]=apparent Km; read-out: Biochemical IC50 GSK3A
[3] = target: ERK1 (Homo sapiens, UniProt P27361); experiment: ICKP radiometric kinase assay; assay type: biochemical; conditions: read-out: % AR (% kinase activity remaining)
[4] = target: p38 alpha (Homo sapiens, UniProt Q16539); experiment: ICKP radiometric kinase assay; assay type: biochemical; conditions: read-out: % AR (% kinase activity remaining)
[5] = target: p38 delta (Homo sapiens, UniProt O15264); experiment: ICKP radiometric kinase assay; assay type: biochemical; conditions: read-out: % AR (% kinase activity remaining)
[6] = target: RSK1 (Homo sapiens, UniProt Q15418); experiment: ICKP radiometric kinase assay; assay type: biochemical; conditions: read-out: % AR (% kinase activity remaining)
[7] = target: PKA (Homo sapiens, UniProt P17612); experiment: ICKP radiometric kinase assay; assay type: biochemical; conditions: read-out: % AR (% kinase activity remaining)
[8] = target: PKC gamma (Homo sapiens, UniProt P05129); experiment: ICKP radiometric kinase assay; assay type: biochemical; conditions: read-out: % AR (% kinase activity remaining)
[9] = target: PKC zeta (Homo sapiens, UniProt Q05513); experiment: ICKP radiometric kinase assay; assay type: biochemical; conditions: read-out: % AR (% kinase activity remaining)
[10] = target: STK33 (Homo sapiens, UniProt Q9BYT3); experiment: ICKP radiometric kinase assay; assay type: biochemical; conditions: read-out: % AR (% kinase activity remaining)
[11] = target: MSK1 (Homo sapiens, UniProt O75582); experiment: ICKP radiometric kinase assay; assay type: biochemical; conditions: read-out: % AR (% kinase activity remaining)
[12] = target: MNK1 (Homo sapiens, UniProt Q9BUB5); experiment: ICKP radiometric kinase assay; assay type: biochemical; conditions: read-out: % AR (% kinase activity remaining)
[13] = target: PRAK (Homo sapiens, UniProt Q8IW41); experiment: ICKP radiometric kinase assay; assay type: biochemical; conditions: read-out: % AR (% kinase activity remaining)
[14] = target: SmMLCK (Homo sapiens, UniProt Q15746); experiment: ICKP radiometric kinase assay; assay type: biochemical; conditions: for remaining activity at 1 µM: read-out: % AR (% kinase activity remaining)
[15] = target: CHK2 (Homo sapiens, UniProt O96017); experiment: ICKP radiometric kinase assay; assay type: biochemical; conditions: read-out: % AR (% kinase activity remaining)
[16] = target: GSK3 beta (Homo sapiens, UniProt P49841); experiment: ICKP radiometric kinase assay; assay type: biochemical; conditions: read-out: % AR (% kinase activity remaining)
[17] = target: TLK1 (Homo sapiens, UniProt Q9UKI8); experiment: ICKP radiometric kinase assay; assay type: biochemical; conditions: read-out: % AR (% kinase activity remaining)
[18] = target: LKB1 (Homo sapiens, UniProt Q15831); experiment: ICKP radiometric kinase assay; assay type: biochemical; conditions: read-out: % AR (% kinase activity remaining)
[19] = target: MARK1 (Homo sapiens, UniProt Q9P0L2); experiment: ICKP radiometric kinase assay; assay type: biochemical; conditions: read-out: % AR (% kinase activity remaining)
[20] = target: BRSK1 (Homo sapiens, UniProt Q8TDC3); experiment: ICKP radiometric kinase assay; assay type: biochemical; conditions: read-out: % AR (% kinase activity remaining)
[21] = target: TSSK1 (Homo sapiens, UniProt Q9BXA7); experiment: ICKP radiometric kinase assay; assay type: biochemical; conditions: read-out: % AR (% kinase activity remaining)
[22] = target: CK2 (Homo sapiens, UniProt P68400); experiment: ICKP radiometric kinase assay; assay type: biochemical; conditions: read-out: % AR (% kinase activity remaining)
[23] = target: TTBK1 (Homo sapiens, UniProt Q5TCY1); experiment: ICKP radiometric kinase assay; assay type: biochemical; conditions: read-out: % AR (% kinase activity remaining)
[24] = target: TTBK2 (Homo sapiens, UniProt Q6IQ55); experiment: ICKP radiometric kinase assay; assay type: biochemical; conditions: read-out: % AR (% kinase activity remaining)
[25] = target: PIM1 (Homo sapiens, UniProt P11309); experiment: ICKP radiometric kinase assay; assay type: biochemical; conditions: for remaining activity at 1 µM: read-out: % AR (% kinase activity remaining)
[26] = target: PIM2 (Homo sapiens, UniProt Q9P1W9); experiment: ICKP radiometric kinase assay; assay type: biochemical; conditions: read-out: % AR (% kinase activity remaining)
[27] = target: PIM3 (Homo sapiens, UniProt Q86V86); experiment: ICKP radiometric kinase assay; assay type: biochemical; conditions: read-out: % AR (% kinase activity remaining)
[28] = target: HIPK3 (Homo sapiens, UniProt Q9H422); experiment: ICKP radiometric kinase assay; assay type: biochemical; conditions: read-out: % AR (% kinase activity remaining)
[29] = target: GCK (Homo sapiens, UniProt Q12851); experiment: ICKP radiometric kinase assay; assay type: biochemical; conditions: read-out: % AR (% kinase activity remaining)
[30] = target: MAP4K3 (Homo sapiens, UniProt Q8IVH8); experiment: ICKP radiometric kinase assay; assay type: biochemical; conditions: read-out: % AR (% kinase activity remaining)
[31] = target: TAK1 (Homo sapiens, UniProt O43318); experiment: ICKP radiometric kinase assay; assay type: biochemical; conditions: read-out: % AR (% kinase activity remaining)
[32] = target: IRAK1 (Homo sapiens, UniProt P51617); experiment: ICKP radiometric kinase assay; assay type: biochemical; conditions: read-out: % AR (% kinase activity remaining)
[33] = target: IRAK4 (Homo sapiens, UniProt Q9NWZ3); experiment: ICKP radiometric kinase assay; assay type: biochemical; conditions: read-out: % AR (% kinase activity remaining)
[34] = target: WNK1 (Homo sapiens, UniProt Q9H4A3); experiment: ICKP radiometric kinase assay; assay type: biochemical; conditions: read-out: % AR (% kinase activity remaining)
[35] = target: ULK1 (Homo sapiens, UniProt O75385); experiment: ICKP radiometric kinase assay; assay type: biochemical; conditions: read-out: % AR (% kinase activity remaining)
[36] = target: Src (Homo sapiens, UniProt P12931); experiment: ICKP radiometric kinase assay; assay type: biochemical; conditions: read-out: % AR (% kinase activity remaining)
[37] = target: CSK (Homo sapiens, UniProt P41240); experiment: ICKP radiometric kinase assay; assay type: biochemical; conditions: read-out: % AR (% kinase activity remaining)
[38] = target: JAK2 (Homo sapiens, UniProt O60674); experiment: ICKP radiometric kinase assay; assay type: biochemical; conditions: read-out: % AR (% kinase activity remaining)
[39] = target: SYK (Homo sapiens, UniProt P43405); experiment: ICKP radiometric kinase assay; assay type: biochemical; conditions: read-out: % AR (% kinase activity remaining)
[40] = target: ZAP70 (Homo sapiens, UniProt P43403); experiment: ICKP radiometric kinase assay; assay type: biochemical; conditions: read-out: % AR (% kinase activity remaining)
[41] = target: EPH-A2 (Homo sapiens, UniProt P29317); experiment: ICKP radiometric kinase assay; assay type: biochemical; conditions: read-out: % AR (% kinase activity remaining)
[42] = target: EPH-B3 (Homo sapiens, UniProt P54753); experiment: ICKP radiometric kinase assay; assay type: biochemical; conditions: read-out: % AR (% kinase activity remaining)
[43] = target: EPH-B4 (Homo sapiens, UniProt P54760); experiment: ICKP radiometric kinase assay; assay type: biochemical; conditions: read-out: % AR (% kinase activity remaining)
Chain of EPH-B4 (P54760 16-987): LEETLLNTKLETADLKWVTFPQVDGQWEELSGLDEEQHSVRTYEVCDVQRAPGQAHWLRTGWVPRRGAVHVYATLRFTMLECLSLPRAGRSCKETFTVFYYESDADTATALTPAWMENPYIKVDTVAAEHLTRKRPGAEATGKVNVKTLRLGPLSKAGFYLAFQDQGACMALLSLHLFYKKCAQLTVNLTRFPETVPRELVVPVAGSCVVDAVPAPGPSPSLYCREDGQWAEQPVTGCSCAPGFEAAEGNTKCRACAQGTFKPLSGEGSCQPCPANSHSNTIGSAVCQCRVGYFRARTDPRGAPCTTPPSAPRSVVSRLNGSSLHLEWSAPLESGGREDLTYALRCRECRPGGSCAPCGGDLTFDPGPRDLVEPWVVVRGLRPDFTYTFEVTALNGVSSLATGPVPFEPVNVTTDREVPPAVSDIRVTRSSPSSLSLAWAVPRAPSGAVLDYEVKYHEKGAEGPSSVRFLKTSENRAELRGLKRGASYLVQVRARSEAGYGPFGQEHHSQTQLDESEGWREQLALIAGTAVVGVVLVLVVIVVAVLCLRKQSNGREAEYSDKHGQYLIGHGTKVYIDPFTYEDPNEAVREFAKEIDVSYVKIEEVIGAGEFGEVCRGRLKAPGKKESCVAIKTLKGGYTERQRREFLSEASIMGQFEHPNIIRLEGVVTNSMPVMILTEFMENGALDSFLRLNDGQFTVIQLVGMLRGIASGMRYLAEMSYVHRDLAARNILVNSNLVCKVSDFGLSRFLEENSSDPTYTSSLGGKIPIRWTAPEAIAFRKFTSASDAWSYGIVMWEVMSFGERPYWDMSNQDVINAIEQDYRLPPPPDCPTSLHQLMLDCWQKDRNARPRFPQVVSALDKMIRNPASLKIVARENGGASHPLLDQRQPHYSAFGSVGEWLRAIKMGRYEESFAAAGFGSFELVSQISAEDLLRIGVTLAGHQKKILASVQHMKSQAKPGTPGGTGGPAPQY

Chain of PIM1 (P11309 whole entry, species assumed): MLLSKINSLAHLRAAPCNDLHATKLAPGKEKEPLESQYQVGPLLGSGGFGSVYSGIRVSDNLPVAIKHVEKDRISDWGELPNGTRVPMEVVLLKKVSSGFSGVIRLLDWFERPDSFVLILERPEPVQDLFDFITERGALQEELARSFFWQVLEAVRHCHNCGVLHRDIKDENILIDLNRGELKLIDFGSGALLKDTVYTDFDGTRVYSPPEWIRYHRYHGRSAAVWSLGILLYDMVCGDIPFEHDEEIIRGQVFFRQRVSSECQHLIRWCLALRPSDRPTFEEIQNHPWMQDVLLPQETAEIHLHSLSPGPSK
Chain of TSSK1 (Q9BXA7 whole entry): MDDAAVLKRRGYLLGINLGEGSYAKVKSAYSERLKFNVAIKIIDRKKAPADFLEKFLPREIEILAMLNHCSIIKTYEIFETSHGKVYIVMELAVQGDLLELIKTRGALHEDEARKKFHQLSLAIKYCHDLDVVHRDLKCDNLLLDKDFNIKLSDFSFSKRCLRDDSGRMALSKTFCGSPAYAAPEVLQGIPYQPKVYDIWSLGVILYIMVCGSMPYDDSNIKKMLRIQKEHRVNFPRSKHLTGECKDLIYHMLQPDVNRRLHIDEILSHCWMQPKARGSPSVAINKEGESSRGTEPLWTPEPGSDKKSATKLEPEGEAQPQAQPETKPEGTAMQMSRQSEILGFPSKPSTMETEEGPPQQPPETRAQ
Chain of GSK3A (P49840 whole entry): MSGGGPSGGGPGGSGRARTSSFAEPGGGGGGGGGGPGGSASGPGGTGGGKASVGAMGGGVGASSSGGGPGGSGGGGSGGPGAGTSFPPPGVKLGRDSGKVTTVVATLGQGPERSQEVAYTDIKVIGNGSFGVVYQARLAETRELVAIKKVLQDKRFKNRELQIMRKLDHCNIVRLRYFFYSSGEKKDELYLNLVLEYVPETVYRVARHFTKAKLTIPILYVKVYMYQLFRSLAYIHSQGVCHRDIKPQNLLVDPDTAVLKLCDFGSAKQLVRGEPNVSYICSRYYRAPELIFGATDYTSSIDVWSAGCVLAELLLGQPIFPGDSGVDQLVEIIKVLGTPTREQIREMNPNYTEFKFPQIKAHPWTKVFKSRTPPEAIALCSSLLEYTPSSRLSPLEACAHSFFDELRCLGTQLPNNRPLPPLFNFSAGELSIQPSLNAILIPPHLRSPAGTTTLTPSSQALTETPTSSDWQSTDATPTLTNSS
Chain of TAK1 (O43318 1-303 limits assumed): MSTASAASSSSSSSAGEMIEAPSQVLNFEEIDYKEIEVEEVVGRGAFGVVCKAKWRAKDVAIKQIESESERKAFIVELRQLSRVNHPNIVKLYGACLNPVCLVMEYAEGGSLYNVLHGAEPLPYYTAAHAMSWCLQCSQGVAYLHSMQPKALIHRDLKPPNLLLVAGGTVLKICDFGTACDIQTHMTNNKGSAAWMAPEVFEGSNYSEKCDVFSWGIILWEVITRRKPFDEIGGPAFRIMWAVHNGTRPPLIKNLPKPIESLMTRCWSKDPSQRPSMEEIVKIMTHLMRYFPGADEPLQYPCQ
Chain of BRSK1 (Q8TDC3 whole entry): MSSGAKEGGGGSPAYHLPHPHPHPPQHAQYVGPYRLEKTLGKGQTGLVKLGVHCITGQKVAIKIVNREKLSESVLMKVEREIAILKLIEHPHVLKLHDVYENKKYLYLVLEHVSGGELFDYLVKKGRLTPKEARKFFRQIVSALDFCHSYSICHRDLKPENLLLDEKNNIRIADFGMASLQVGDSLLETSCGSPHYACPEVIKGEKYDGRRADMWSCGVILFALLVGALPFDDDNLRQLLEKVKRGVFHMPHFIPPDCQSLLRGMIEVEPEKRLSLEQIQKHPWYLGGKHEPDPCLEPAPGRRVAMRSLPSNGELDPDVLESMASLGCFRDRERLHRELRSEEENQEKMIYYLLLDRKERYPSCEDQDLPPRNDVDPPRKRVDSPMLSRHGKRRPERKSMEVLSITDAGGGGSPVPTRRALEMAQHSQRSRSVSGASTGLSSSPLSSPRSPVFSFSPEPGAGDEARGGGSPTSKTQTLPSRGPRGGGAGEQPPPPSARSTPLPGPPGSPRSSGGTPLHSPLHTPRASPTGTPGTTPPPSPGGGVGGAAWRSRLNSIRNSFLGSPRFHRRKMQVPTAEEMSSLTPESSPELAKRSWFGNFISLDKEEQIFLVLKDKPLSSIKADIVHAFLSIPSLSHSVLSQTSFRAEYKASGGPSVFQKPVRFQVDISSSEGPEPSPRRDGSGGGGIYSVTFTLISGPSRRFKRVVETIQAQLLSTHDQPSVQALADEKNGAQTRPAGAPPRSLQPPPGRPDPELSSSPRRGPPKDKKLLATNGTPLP
Chain of EPH-A2 (P29317 24-976): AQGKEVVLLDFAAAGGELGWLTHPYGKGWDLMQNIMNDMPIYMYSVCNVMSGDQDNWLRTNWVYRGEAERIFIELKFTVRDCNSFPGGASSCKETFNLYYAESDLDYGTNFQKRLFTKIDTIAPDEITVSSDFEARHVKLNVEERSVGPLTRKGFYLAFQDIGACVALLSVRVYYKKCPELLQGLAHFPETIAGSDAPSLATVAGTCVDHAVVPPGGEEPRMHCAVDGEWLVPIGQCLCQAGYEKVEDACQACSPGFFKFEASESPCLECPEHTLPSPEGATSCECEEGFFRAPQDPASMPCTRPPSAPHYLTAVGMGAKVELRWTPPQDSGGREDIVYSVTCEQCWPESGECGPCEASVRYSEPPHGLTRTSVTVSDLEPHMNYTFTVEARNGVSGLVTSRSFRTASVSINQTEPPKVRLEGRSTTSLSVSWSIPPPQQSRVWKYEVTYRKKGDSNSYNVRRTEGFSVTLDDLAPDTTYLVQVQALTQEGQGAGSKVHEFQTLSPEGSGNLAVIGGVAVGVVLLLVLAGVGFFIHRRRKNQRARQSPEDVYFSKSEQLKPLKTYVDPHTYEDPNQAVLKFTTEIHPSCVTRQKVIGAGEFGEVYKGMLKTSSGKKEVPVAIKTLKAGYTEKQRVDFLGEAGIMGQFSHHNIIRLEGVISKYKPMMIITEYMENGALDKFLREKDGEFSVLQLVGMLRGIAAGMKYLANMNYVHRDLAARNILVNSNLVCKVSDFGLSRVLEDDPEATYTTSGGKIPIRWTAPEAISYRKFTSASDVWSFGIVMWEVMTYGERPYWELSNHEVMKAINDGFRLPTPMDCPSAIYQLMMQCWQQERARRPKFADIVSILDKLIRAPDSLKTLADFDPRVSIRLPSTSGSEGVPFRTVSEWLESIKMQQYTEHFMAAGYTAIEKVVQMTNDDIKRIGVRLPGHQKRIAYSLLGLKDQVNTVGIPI
Chain of p38 alpha (Q16539 whole entry): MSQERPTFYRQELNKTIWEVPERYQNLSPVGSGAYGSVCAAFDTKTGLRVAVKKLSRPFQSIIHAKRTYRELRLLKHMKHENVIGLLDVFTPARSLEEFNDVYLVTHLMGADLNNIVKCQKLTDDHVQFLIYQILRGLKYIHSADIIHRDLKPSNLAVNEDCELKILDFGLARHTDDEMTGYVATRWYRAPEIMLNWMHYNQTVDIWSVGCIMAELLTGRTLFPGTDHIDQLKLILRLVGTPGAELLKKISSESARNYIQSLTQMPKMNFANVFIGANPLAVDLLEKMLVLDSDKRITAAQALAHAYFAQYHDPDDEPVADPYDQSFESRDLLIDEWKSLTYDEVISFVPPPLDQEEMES
Chain of CSK (P41240 whole entry): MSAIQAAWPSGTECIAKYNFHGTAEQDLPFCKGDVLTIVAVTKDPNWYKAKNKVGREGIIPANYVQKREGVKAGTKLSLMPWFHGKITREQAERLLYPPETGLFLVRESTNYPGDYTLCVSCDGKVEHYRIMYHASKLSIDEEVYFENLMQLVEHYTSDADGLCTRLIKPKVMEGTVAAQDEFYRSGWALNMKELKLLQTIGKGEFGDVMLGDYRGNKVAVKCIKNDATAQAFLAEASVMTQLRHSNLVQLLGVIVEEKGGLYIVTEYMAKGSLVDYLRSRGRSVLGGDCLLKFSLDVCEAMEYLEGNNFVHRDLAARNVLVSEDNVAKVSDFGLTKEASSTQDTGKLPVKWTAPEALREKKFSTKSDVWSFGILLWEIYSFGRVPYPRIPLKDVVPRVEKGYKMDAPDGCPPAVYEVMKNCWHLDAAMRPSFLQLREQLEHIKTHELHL

CN(C)C[C@H]1CC[C@H](N2C(=O)NCc3cnc4ccc(-c5cc(Cl)c(O)c(Cl)c5)cc4c32)CC1 [HTH-01-091, 9-(3,5-dichloro-4-hydroxyphenyl)-1-(trans-4-((dimethylamino)methyl)cyclohexyl)-3,4-dihydropyrimido[5,4 c]quinolin-2(1H)-one]
IC50 [1]: 962 nM
IC50 [2]: 1740 nM
remaining activity at 1 µM [3]: 119%
remaining activity at 1 µM [4]: 84%
remaining activity at 1 µM [5]: 89%
remaining activity at 1 µM [6]: 48%
remaining activity at 1 µM [7]: 112%
remaining activity at 1 µM [8]: 71%
remaining activity at 1 µM [9]: 96%
remaining activity at 1 µM [10]: 26%
remaining activity at 1 µM [11]: 65%
remaining activity at 1 µM [12]: 109%
remaining activity at 1 µM [13]: 78%
IC50 ([14]; radioactive filter-binding assay provided by the ICKP, read-out: Enzymatic IC50 SmMLCK): 109 nM
remaining activity at 1 µM [14]: 8%
remaining activity at 1 µM [15]: 34%
remaining activity at 1 µM [16]: 86%
remaining activity at 1 µM [17]: 95%
remaining activity at 1 µM [18]: 100%
remaining activity at 1 µM [19]: 97%
remaining activity at 1 µM [20]: 85%
remaining activity at 1 µM [21]: 68%
remaining activity at 1 µM [22]: 23%
remaining activity at 1 µM [23]: 103%
remaining activity at 1 µM [24]: 86%
remaining activity at 1 µM [25]: 1%
IC50 ([25]; radioactive filter-binding assay provided by the ICKP, read-out: Enzymatic IC50 PIM1): 60.6 nM
remaining activity at 1 µM [26]: 2%
remaining activity at 1 µM [27]: 1%
remaining activity at 1 µM [28]: 25%
remaining activity at 1 µM [29]: 16%
remaining activity at 1 µM [30]: 55%
remaining activity at 1 µM [31]: 22%
remaining activity at 1 µM [32]: 86%
remaining activity at 1 µM [33]: 85%
remaining activity at 1 µM [34]: 101%
remaining activity at 1 µM [35]: 93%
remaining activity at 1 µM [36]: 54%
remaining activity at 1 µM [37]: 76%
remaining activity at 1 µM [38]: 39%
remaining activity at 1 µM [39]: 112%
remaining activity at 1 µM [40]: 98%
remaining activity at 1 µM [41]: 66%
remaining activity at 1 µM [42]: 99%
remaining activity at 1 µM [43]: 104%

CC(=O)c1cnc2ccc(-c3cc(Cl)c(O)c(Cl)c3)nc2c1N[C@H]1CC[C@H](CN(C)C)CC1 [OTSSP167]
IC50 [1]: 66.5 nM
IC50 [2]: 1.6 nM
remaining activity at 1 µM [3]: 88%
remaining activity at 1 µM [4]: 10%
remaining activity at 1 µM [5]: 4%
remaining activity at 1 µM [6]: 3%
remaining activity at 1 µM [7]: 12%
remaining activity at 1 µM [8]: 1%
remaining activity at 1 µM [9]: 19%
remaining activity at 1 µM [10]: 10%
remaining activity at 1 µM [11]: 5%
remaining activity at 1 µM [12]: 28%
remaining activity at 1 µM [13]: 16%
remaining activity at 1 µM [14]: 6%
remaining activity at 1 µM [15]: 1%
remaining activity at 1 µM [16]: 0%
remaining activity at 1 µM [17]: 58%
remaining activity at 1 µM [18]: 83%
remaining activity at 1 µM [19]: 31%
remaining activity at 1 µM [20]: 2%
remaining activity at 1 µM [21]: 1%
remaining activity at 1 µM [22]: 1%
remaining activity at 1 µM [23]: 82%
remaining activity at 1 µM [24]: 91%
remaining activity at 1 µM [25]: 10%
remaining activity at 1 µM [26]: 0%
remaining activity at 1 µM [27]: 1%
remaining activity at 1 µM [28]: 0%
remaining activity at 1 µM [29]: 0%
remaining activity at 1 µM [30]: 1%
remaining activity at 1 µM [31]: 1%
remaining activity at 1 µM [32]: 3%
remaining activity at 1 µM [33]: 7%
remaining activity at 1 µM [34]: 111%
remaining activity at 1 µM [35]: 32%
remaining activity at 1 µM [36]: 5%
remaining activity at 1 µM [37]: 9%
remaining activity at 1 µM [38]: 3%
remaining activity at 1 µM [39]: 7%
remaining activity at 1 µM [40]: 78%
remaining activity at 1 µM [41]: 7%
remaining activity at 1 µM [42]: 18%
remaining activity at 1 µM [43]: 2%
